Measurements taken from publication PMC11583597, “Brain uptake pharmacokinetics of albiglutide, dulaglutide, tirzepatide, and DA5-CH in the search for new treatments of Alzheimer’s and Parkinson’s diseases” (Tissue Barriers, 2023).

Legend:
[1] = Long-term (6 h) measurement of brain uptake; format: in vivo, male CD-1 mice; details: mouse iv 125I-IRA, 6 h circulation; corrected for vascular space and degradation; estimated
Procedure: Substances that are enzymatically stable in blood and have slow clearance from the circulation can slowly enter the brain using the extracellular pathways.[63],[64] […] Albumin enters the brain by extracellular pathways,[70] and so we used albumin in two ways: we used ^99mTc-Alb circulating for 10 min to measure vascular space and ^99mTc-Alb circulating for 6 h to measure brain uptake by extracellular pathways. This is similar to the time-differential methodology developed by Poduslo and Curran to measure a substance’s vascular space and its uptake rate.[71] Following anesthetization, the jugular vein and right carotid artery were exposed. Mice were given an iv injection of 0.1% BSA-LR containing 1 × 10^6 cpm of ^125I-IRA or 5 × 10^5 cpm of ^99mTc-Alb, which circulated for 6 h. Mice receiving only the ^125I-IRA were given an injection of 5 × 10^5 cpm of ^99mTc-Alb 10 min prior to the end of the 6 h circulation time to act as a vascular marker. A separate set of mice received an iv injection of both 1 × 10^6 cpm of ^125I-IRA and 5 × 10^5 cpm of ^99mTc-Alb that circulated for 10 min. Following the 10 min or 6 h circulation time points, blood and brain were collected as described above. Thus, we had B/S ratios for ^99mTc-Alb measuring vascular space (10 min circulation time) and B/S ratios for ^99mTc-Alb measuring vascular space plus uptake by the extracellular pathways (6 h circulation time) which could be compared to the B/S ratios for the ^125I-IRAs after 10 min and 6 h of circulation.
Immediately after counting the radioactivity, the blood and brains from the 10 min and 6 h time points were processed as described in Section 2.5 for in vivo stability. For further comparison, data from the 1 h time point were taken from the original pharmacokinetic uptake study. The ^125I-IRA brain % acid precipitation (%AP) was divided by the ^125I-IRA serum %AP at each time point to calculate the %AP B/S ratio. This value was multiplied by the B/S ratio for each ^125I-IRA to correct for degradation over the 10 min, 1 h, or 6 h time periods. […]

[2] = reported; cited from earlier work
[3] = cited from earlier work; for Brain influx within 1 h of iv injection (detection): mouse iv, radiolabeled IRA, earlier study
Source text: The unidirectional blood-to-brain influx rate (Ki) calculated from Figure 2c for all four IRAs tested is graphed with previously calculated Ki’s for other IRAs[50] in Figure 3 by rank.

[4] = rat, 1 hour after iv, LC-MS/MS, mean, cited from earlier work
Procedure: This may reflect in part the sensitivity of our method using small amounts of radiolabeled peptides given the results of a recent study on semaglutide. That study used a novel liquid chromatography-tandem mass spectroscopy (LC-MS/MS) method to measure brain levels of semaglutide in adult male Sprague-Dawley rats injected iv 1 hour earlier with about […] of the unlabeled drug per animal. Detectable ...

[5] = IRAs of the earlier study; cited from earlier work
Procedure: The rank order of IRAs showing significant brain uptake 1 h after iv injection with respect to AUCs is similar, but not identical to the rank order of their Ki’s (see Figures 5b and 3b). Less similar is the rank order of IRAs for uptake into brain parenchyma defined as the percent reaching the brain that was in its parenchyma vs. its capillaries. The rank order of parenchymal uptake was specifically DA4-JC (89.7%) = albiglutide (BAF) (89.4%) > DA3-CH (86%) > exenatide (84.2%) > Peptide 17 (73.2%) > lixisenatide (66.8%) > dulaglutide (BAF) (61.8%) > DA5-CH (57.6%) > Peptide 21 (43.6%) > liraglu ...

| Compound | Amount present in brain at 6 h (AP corrected delta %Inj/g) [1] | half-lives in human serum [2] | Brain influx within 1 h of iv injection (detection) [3] | semaglutide level in the cerebrum ([4]; cerebrum = cerebral cortex + striatum + amygdala + olfactory bulb) | semaglutide level in the cerebellum [4] | semaglutide level in the hypothalamus [4] | semaglutide level in the brain as a whole ([4]; no vascular wash-out) | Percent reaching the brain that was in parenchyma vs. capillaries [5] | Blood to Brain Unidirectional Influx Rate (Ki) ([3]; mouse, in vivo, iv) |
| --- | --- | --- | --- | --- | --- | --- | --- | --- | --- |
| CC[C@H](C)[C@H](NC(=O)[C@H](Cc1ccccc1)NC(=O)[C@H](CCC(=O)O)NC(=O)[C@H](CCCCNC(=O)COCCOCCNC(=O)COCCOCCNC(=O)CC[C@H](NC(=O)CCCCCCCCCCCCCCCCC(=O)O)C(=O)O)NC(=O)[C@H](C)NC(=O)[C@H](C)NC(=O)[C@H](CCC(N)=O)NC(=O)CNC(=O)[C@H](CCC(=O)O)NC(=O)[C@H](CC(C)C)NC(=O)[C@H](Cc1ccc(O)cc1)NC(=O)[C@H](CO)NC(=O)[C@H](CO)NC(=O)[C@@H](NC(=O)[C@H](CC(=O)O)NC(=O)[C@H](CO)NC(=O)[C@@H](NC(=O)[C@H](Cc1ccccc1)NC(=O)[C@@H](NC(=O)CNC(=O)[C@H](CCC(=O)O)NC(=O)C(C)(C)NC(=O)[C@@H](N)Cc1cnc[nH]1)[C@@H](C)O)[C@@H](C)O)C(C)C)C(=O)N[C@@H](C)C(=O)N[C@@H](Cc1c[nH]c2ccccc12)C(=O)N[C@@H](CC(C)C)C(=O)N[C@H](C(=O)N[C@@H](CCCNC(=N)N)C(=O)NCC(=O)N[C@@H](CCCNC(=N)N)C(=O)NCC(=O)O)C(C)C [Semaglutide] | 0.022 %Inj/g | ~ 160 h | did not detect brain influx | 7.7 ng/g | 12.6 ng/g | 27 ng/g | 12.0 ng/g |  |  |
| CCCCCCCCCCCCCCCC(=O)N[C@@H](CCC(=O)NCCCC[C@H](NC(=O)[C@H](C)NC(=O)[C@H](C)NC(=O)[C@H](CCC(N)=O)NC(=O)CNC(=O)[C@H](CCC(=O)O)NC(=O)[C@H](CC(C)C)NC(=O)[C@H](Cc1ccc(O)cc1)NC(=O)[C@H](CO)NC(=O)[C@H](CO)NC(=O)[C@@H](NC(=O)[C@H](CC(=O)O)NC(=O)[C@H](CO)NC(=O)[C@@H](NC(=O)[C@H](Cc1ccccc1)NC(=O)[C@@H](NC(=O)CNC(=O)[C@H](CCC(=O)O)NC(=O)[C@H](C)NC(=O)[C@@H](N)Cc1cnc[nH]1)[C@@H](C)O)[C@@H](C)O)C(C)C)C(=O)N[C@@H](CCC(=O)O)C(=O)N[C@@H](Cc1ccccc1)C(=O)N[C@H](C(=O)N[C@@H](C)C(=O)N[C@@H](Cc1c[nH]c2ccccc12)C(=O)N[C@@H](CC(C)C)C(=O)N[C@H](C(=O)N[C@@H](CCCNC(=N)N)C(=O)NCC(=O)N[C@@H](CCCNC(=N)N)C(=O)NCC(=O)O)C(C)C)[C@@H](C)CC)C(=O)O [Liraglutide] | 0.03 %Inj/g | 11 to 13 h | did not detect brain influx |  |  |  |  | 28.7% |  |
| lixisenatide: FDA-approved IRA tested in the earlier study (ref 50) |  |  |  |  |  |  |  | 66.8% | 0.3271 µL/g/min |
